# According to US9259408B2, “Use of DHA, EPA or DHA-derived EPA for treating a pathology associated with cellular oxidative damage” (Brudy Technology S.L., priority 2005, dated 2016):
# Assays:
# [1] = test system: ARPE-19 cells (retina pigmentary epithelial cells, CRL-2302); assay: ROS generation in ARPE-19 cells under AAPH oxidative stress (DHR123/H2DCFDA); assay type: cell-based
# Method: (§1) The cellular models used were Foreskin cells (undifferentiated epidermal fibroblasts, CRL-2076) and ARPE-19 cells (retina pigmentary epithelial cells, CRL-2302) obtained from the American Type Culture Collection. The cell cultures were kept in suitable growth conditions of temperature (37° C.), CO2 concentration (5%) and humidity (95%) in an incubator specially designed for this purpose. The ARPE-19 cells were maintained in growth up to confluence of 0.3×10^4 cells/cm^2 in culture flasks with DMEM-F12 medium (Biological Industries) supplemented with 10% bovine foetal serum, penicillin antibiotics (100 U/mL), streptomycin (100 μg/mL) and glutamine (Biological Industries). […]
# (§2) The ROS level was measured in primary cultures of human skin CRL-2076 fibroblasts and in ARPE-19 retinal epithelial cells by employing the fluorimetric technique using dihydrorodamine 123 (DHR123, Molecular Probes) and 2,7-dichlorofluorescein diacetate (H2DCFDA, Molecular Probes) as fluorescent probes in a continuous system measuring every 30 min until 180 minutes. […] The fluorescence of the oxidised probes (2,7-dichlorofluorescein and rodamine 123) was measured in a Mithras fluorescence reader at an excitation wavelength of 488 nm and an emission wavelength of 525 nm in function of the time. […]
# Foreskin cells [2] = assay: Lipidic peroxides (TBARS/MDA) in Foreskin cells; assay type: cell-based, human; conditions: 40 mM AAPH; 50 μM DHA-TG
# Method: The measurement of malonildialdehyde (MDA) on cell lysates was used as a marker of lipidic peroxidation by UV-Vis spectrophotometry. The MDA and the 4-hydroxyalkenals (HAE) are products derived from the peroxidation of polyunsaturated fatty acids and related esters. Direct measurements of these aldehydes constitutes a convenient index of lipidic peroxidation. A chromogenic reagent (N-methyl-2-phenyl-indole in acetonitrile) which reacts with the MDA at 45° C. was employed, using the commercial lipidic peroxidation kit from Calbiochem (No. 437634). The condensation of one molecule of MDA with two molecules of the chromogenic reagent gives a stable chromophore with maximum absorbance at 586 nm, with the detection limit being 0.1 μM. The induction was carried out for 6 h with 40 mM AAPH and 24 hours of latency. The cells (10^7 cells/mL) were lysed by means of cycles of freezing and thawing in liquid N2. The samples were fractionated in order to measure MDA and protein. The results were expressed in μM of MDA/mg of protein.
# Foreskin cells [3] = assay: Superoxide anion generation (luminol chemiluminescence) in Foreskin cells; assay type: cell-based, human; conditions: 40 mM AAPH, with or without DHA; 10 mM Tyron or 0.1875 UA/μl exogenous SOD
# Method: Direct measurement of the superoxide anion was carried out by means of the chemiluminescence technique on microplate measured by luminol (Calbiochem, No. 574590). Chemiluminescence for detecting the superoxide anion is a technique used due to its potential for gaining access to all the intracellular sites of superoxide generation, due to the high specificity of the reaction with luminol, the minimal intracellular toxicity and the increased sensitivity in relation to other chemical techniques. It is based on the superoxide anion oxidising luminol in a reaction that produces photons of light which are quickly measured on a standard illuminometer. In our tests we used a chemiluminescence reader on microplate from ELISA, MITHRAS and furthermore, given the short half-life of the radical, an enhancer was used to increase the sensitivity of the test and amplify the response. […] The chemiluminescence measurement in the cells submitted to the AAPH oxidative stress inducing treatment was analysed every […] for a total time of 4100 seconds, at a frequency of 120 sec/cycle. […]
# [4] = test system: Foreskin cells (undifferentiated epidermal fibroblasts, CRL-2076); assay: ROS generation in Foreskin cells under xanthine/xanthine oxidase oxidative stress (CDCFDA); assay type: cell-based, human; conditions: 100 μM Vitamin E
# Method: as §1, §2
molecule,measurement,setting,value
"CCCCS(=N)(=O)CCC(N)C(=O)O (stereo not shown) [BSO, Buthionine sulfoximine, reference compound]",effect of addition of BSO on the protective effect of DHA,[1],eliminates the protective effect of DHA
"CC/C=C\C/C=C\C/C=C\C/C=C\C/C=C\C/C=C\CCC(=O)O [DHA, docosahexaenoic acid]",protection against lipidic peroxides (TBARS),Foreskin cells [2],48%
"O=S(=O)(O)c1cc(O)c(O)c(S(=O)(=O)O)c1 [Tyron, 4,5-dihydroxy-1,3-benzene disulphonic acid, reference compound]",production of superoxide anion in cells stressed with AAPH,Foreskin cells [3],totally inhibited
vitamin E [reference compound],inhibition of cellular oxidation,[4],30%
